Experimental data from article PMC12049818, “Identification of NUV-244 as a PNPLA3 I148M degrading small molecule” (iScience, 2025).
Substitutions are numbered along the chain they refer to.

Key:
[1] = molecular target: T1, PNPLA3-tagRFP (Homo sapiens, UniProt Q9NST1); assay: Huh7 PNPLA3-tagRFP (WT) reduction on lipid droplets; type: cell-based; settings: representative dose-response curve, Figure 3B
T1 construct: host or cells: Huh7
T1 sequence (Q9NST1 1-481): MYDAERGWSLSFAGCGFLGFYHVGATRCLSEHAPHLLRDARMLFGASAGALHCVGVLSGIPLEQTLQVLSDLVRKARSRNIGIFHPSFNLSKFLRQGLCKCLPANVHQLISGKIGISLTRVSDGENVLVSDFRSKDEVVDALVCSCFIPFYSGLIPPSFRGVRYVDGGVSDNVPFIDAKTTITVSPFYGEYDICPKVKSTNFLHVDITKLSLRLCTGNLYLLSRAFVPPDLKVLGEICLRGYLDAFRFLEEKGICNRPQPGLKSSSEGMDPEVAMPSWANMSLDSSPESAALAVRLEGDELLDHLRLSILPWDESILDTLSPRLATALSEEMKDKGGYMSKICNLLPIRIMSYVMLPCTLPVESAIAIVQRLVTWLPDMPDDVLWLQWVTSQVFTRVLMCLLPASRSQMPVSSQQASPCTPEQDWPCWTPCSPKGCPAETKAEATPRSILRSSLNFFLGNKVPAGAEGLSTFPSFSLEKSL
Method: To confirm activity, NUV-244 was resynthesized. […] Next, to evaluate the specificity against PNPLA3 WT, Huh7 cells expressing PNPLA3-tagRFP were generated (Figures 3A and S3A). Like the mutant, PNPLA3-tagRFP localizes to lipid droplets in Huh7 cells and NUV-244 dose-dependently leads to a decrease of PNPLA3-tagRFP with a similar potency as for the mutant (Figure 3B).
For dose-response cells were seeded at 4000 c/30 μl per well in 384 well plates (Revvity, Waltham, MA, USA, PhenoPlate 384-well microplate, #6057308) and stored in a 37°C incubator with 5% CO2 and 95% humidity overnight. Compounds, serially diluted, and DMSO controls were added, and cells were incubated for another 24h. […]
Images were analyzed using Harmony (Revvity) and MetaXpress software (Molecular Devices, USA) to quantify lipid droplet morphology and PNPLA3 I148M-tagRFP intensity.
Assay plates were evaluated based on Z’ scores (>0.6) and signal-to-background ratio (>12) using Genedata Screener® for HTS and Condoseo modules (Genedata, Switzerland). […] Automated image analysis routines were set up to quantify the number, morphology and intensity of nuclei, lipid droplets and the intensity of PNPLA3 I148M-tagRFP on lipid droplets. […]

[2] = molecular target: T2, PNPLA3 I148M-tagRFP (Homo sapiens, UniProt Q9NST1, I148M); assay: Time-lapse imaging of PNPLA3 I148M-tagRFP on lipid droplets in Huh7 cells; type: cell-based; settings: 1μM or 5μM; Huh7
T2 construct: host or cells: Huh7
T2 sequence (Q9NST1 1-481 I148M): T1 sequence (Q9NST1 1-481) with I148M
Method: To evaluate the kinetics of NUV-244 mediated reduction and degradation of PNPLA3 I148M-tagRFP, we performed time-lapse studies to follow PNPLA3 I148M-tagRFP over time (Figures 5A and 5B). 1μM or 5μM NUV-244 leads to rapid onset of reduction of PNPLA3 I148M-tagRFP on lipid droplets with half maximum effect reached after approximately 2h. To evaluate if PNPLA3 I148M-tagRFP degradation is 26S proteasome dependent, 1μM Bortezomib was co-incubated with NUV-244. Proteasome inhibition prevents PNPLA3 I148M-tagRFP reduction from lipid droplets (Figures 5A and 5B). […] A recent paper identified the E3 ligase responsible for the turnover of endogenous PNPLA3, the ER associated E3 ligase BFAR.[18]
Huh7 cells expressing PNPLA3 I148M-tagRFP were seeded at 4000 cells/well in 30 μL media in 384-well imaging plates (Revvity, PhenoPlate) and stored in a 37°C incubator with 5% CO2 and 95% humidity overnight. Cells were then incubated with Bodipy diluted in growth medium (38nM final concentration) for 1h at 37°C with 5% CO2 and 95% humidity. Cells were treated with DMSO control, 1 μM or 5 μM NUV-244, with or without 1 μM Bortezomib or 5 μM MLN7243. Cells were imaged every 15 minutes over a 20-hour period using an Opera Phenix confocal spinning disc microscope system (Revvity) with a 20x water objective at 561 nm (tagRFP) and 488 nm (BODIPY). Images were analyzed using Harmony software. PNPLA3 I148M-tagRFP intensity on lipid droplets was quantified and compared between treatments.

[3] = tested on: LX-2 cells; assay: Incucyte growth curves, LX-2; type: cell-based, human; settings: 1μM or 5μM; compared to DMSO
Method: Huh7, Huh7 PNPLA3 I148M, Huh7 PNPLA3, Hep3b and LX-2 cells were seeded at a concentration of 1000 cells/well in 60 μl of growth medium on 384-well microtiter plates (Revvity, Waltham, MA, USA, PhenoPlate 384-well microplate, #6057308) and stored in a 37°C incubator with 5% CO2 and 95% humidity overnight. Next day cells were treated with DMSO as control (1% final concentration) or compound (1μM or 5μM final concentration) and cell density was recorded in the Incucyte® life cell imager (Sartorius, Göttingen, Germany) every 4 hours over a period of 5 days. Growth curves were generated by monitoring confluence over time. Proliferative capacity of PNPLA3 I148M-expressing cells was compared to control cells, and the restoration of proliferative fitness was analyzed.

EC50 [1]: 213 nM
time to half maximum effect of reduction of PNPLA3 I148M-tagRFP on lipid droplets [2]: approximately 2 h
Structure (SMILES): Cc1cccc(Cc2nc(C)c(C(=O)Nc3cc(O)ccc3Cl)s2)c1 [NUV-244]
effect on proliferative capacity, LX-2 [3]: no effects
